Assays:
VCaP [1] = test: Antitumor activity against human VCaP cells xenografted in CB17-SCID mouse assessed as tumor growth inhibition at 40 mg/kg, po administered for 21 days; settings: 504 h, read-out: TGI
[2] = Volume of distribution at steady state in ICR mouse at 2 mg/kg, iv measured upto 24 hrs by LC-MS/MS analysis; format: ADME, organism-based; settings: in vivo, read-out: Vdss
[3] = target: Protein cereblon/Androgen receptor (Homo sapiens, UniProt P10275+Q96SW2, T878A); test: PROTAC activity at AR T878A mutant/CRBN in human LNCaP cells assessed as induction of androgen receptor degradation measured at 24 hrs by Western blot analysis; format: cell-based
Sequence of Protein cereblon/Androgen receptor (Homo sapiens, UniProt P10275+Q96SW2, T878A) (P10275 whole entry T878A, stated change not applied): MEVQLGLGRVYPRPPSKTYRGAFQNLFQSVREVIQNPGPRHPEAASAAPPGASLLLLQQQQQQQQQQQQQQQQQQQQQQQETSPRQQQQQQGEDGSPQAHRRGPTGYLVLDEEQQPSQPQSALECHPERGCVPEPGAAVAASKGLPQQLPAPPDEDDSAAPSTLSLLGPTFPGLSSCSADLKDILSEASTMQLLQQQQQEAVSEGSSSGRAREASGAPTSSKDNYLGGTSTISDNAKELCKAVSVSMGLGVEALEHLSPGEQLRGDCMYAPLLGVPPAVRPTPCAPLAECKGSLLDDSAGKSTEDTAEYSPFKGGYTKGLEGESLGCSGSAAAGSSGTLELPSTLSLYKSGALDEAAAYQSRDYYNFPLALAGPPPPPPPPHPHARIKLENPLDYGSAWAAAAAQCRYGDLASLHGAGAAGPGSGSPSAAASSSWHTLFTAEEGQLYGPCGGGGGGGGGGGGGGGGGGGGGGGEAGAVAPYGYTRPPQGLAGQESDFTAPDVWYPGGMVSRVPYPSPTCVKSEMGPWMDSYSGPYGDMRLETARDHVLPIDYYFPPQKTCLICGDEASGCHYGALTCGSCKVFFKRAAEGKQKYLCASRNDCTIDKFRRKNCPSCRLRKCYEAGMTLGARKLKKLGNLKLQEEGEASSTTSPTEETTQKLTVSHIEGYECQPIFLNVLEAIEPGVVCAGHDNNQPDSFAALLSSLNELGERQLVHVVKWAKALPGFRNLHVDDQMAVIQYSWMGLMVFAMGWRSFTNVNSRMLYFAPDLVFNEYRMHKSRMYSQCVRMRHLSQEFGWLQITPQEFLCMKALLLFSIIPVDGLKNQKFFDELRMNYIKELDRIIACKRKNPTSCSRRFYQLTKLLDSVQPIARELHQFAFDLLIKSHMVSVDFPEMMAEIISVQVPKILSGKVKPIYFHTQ
Sequence of Protein cereblon/Androgen receptor (Homo sapiens, UniProt P10275+Q96SW2, T878A) (Q96SW2 whole entry, stated change not applied): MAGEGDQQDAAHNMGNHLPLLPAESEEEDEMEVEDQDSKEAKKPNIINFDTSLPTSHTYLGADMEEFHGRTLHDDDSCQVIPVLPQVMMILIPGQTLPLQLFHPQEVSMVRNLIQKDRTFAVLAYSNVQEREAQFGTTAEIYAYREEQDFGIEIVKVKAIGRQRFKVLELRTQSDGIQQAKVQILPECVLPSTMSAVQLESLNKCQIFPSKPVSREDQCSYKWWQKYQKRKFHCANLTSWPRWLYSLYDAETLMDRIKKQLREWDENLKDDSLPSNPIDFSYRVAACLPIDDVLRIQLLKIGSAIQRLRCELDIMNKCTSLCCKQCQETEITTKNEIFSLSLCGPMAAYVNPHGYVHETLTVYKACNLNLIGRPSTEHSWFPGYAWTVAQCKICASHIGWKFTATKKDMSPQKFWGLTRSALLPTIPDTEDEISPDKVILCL

[4] = Half life in Sprague-Dawley rat at 2 mg/kg, iv measured upto 24 hrs by LC-MS/MS analysis; settings: in vivo
[5] = Volume of distribution at steady state in Beagle dog at 1 mg/kg, iv measured upto 24 hrs by LC-MS/MS analysis; format: ADME, organism-based, Canis lupus familiaris; settings: in vivo, read-out: Vdss
[6] = AUC (0 to t) in Beagle dog at 10 mg/kg, po measured upto 24 hrs by LC-MS/MS analysis; format: ADME, organism-based, Canis lupus familiaris; parameters: time < 24 hrs, dose 10 mg/kg, route po; settings: in vivo
LNCaP = test: Growth inhibition in human LNCaP cells assessed as reduction in cell viability
[7] = Metabolic stability in rat plasma assessed as half life measured after 2 hrs by LC-MS/MS analysis; format: ADME, cell-free
VCaP [8] = test: Antitumor activity against human VCaP cells xenografted in CB17-SCID mouse assessed as tumor growth inhibition at 20 mg/kg, po administered for 21 days; settings: 504 h, read-out: TGI
[9] = Volume of distribution at steady state in non human primate at 1 mg/kg, iv measured upto 24 hrs by LC-MS/MS analysis; format: ADME, organism-based; settings: primates, in vivo, read-out: Vdss
[10] = target: Protein cereblon/Androgen receptor (Homo sapiens, UniProt P10275+Q96SW2, L702H/T878A); settings: mda-pca-2b
Sequence of Protein cereblon/Androgen receptor (Homo sapiens, UniProt P10275+Q96SW2, L702H/T878A) (P10275 whole entry L702H/T878A, stated change not applied): as the sequence (P10275 whole entry T878A, stated change not applied) above, with L702H counted along it
Sequence of Protein cereblon/Androgen receptor (Homo sapiens, UniProt P10275+Q96SW2, L702H/T878A) (Q96SW2 whole entry, stated change not applied): as the sequence (Q96SW2 whole entry, stated change not applied) above

[11] = Half life in ICR mouse at 2 mg/kg, iv measured upto 24 hrs by LC-MS/MS analysis; format: ADME, organism-based; settings: in vivo
[12] = Metabolic stability in dog hepatocyte assessed as half life measured upto 120 mins by LC-MS/MS analysis; format: ADME, cell-based, Canis lupus familiaris; settings: hepatocytes
[13] = Metabolic stability in dog liver microsome assessed as parent compound remaining measured at 120 mins in presence of NADPH by LC-MS/MS analysis; format: ADME, Canis lupus familiaris; settings: liver microsomes, read-out: Stability
[14] = Oral bioavailability in Beagle dog at 10 mg/kg measured upto 24 hrs by LC-MS/MS analysis; format: ADME, organism-based, Canis lupus familiaris; settings: in vivo
[15] = Half life in non human primate at 2 mg/kg, po measured upto 24 hrs by LC-MS/MS analysis; format: ADME, organism-based; settings: primates, in vivo
[16] = Tmax in non human primate at 2 mg/kg, po measured upto 24 hrs by LC-MS/MS analysis; format: ADME, organism-based; settings: primates, in vivo
[17] = Tmax in Beagle dog at 10 mg/kg, po measured upto 24 hrs by LC-MS/MS analysis; format: ADME, organism-based, Canis lupus familiaris; settings: in vivo
[18] = Half life in non human primate assessed as half life at 1 mg/kg, iv measured upto 24 hrs by LC-MS/MS analysis; format: ADME, organism-based; settings: primates, in vivo
in vivo = settings: Sprague-Dawley, rat, iv, 2 mg/kg
[19] = Metabolic stability in mouse hepatocyte assessed as half life measured upto 120 mins by LC-MS/MS analysis; format: ADME, cell-based; settings: hepatocytes
[20] = Tmax in Sprague-Dawley rat at 5 mg/kg, po measured upto 24 hrs by LC-MS/MS analysis; format: ADME, organism-based; settings: in vivo
[21] = Metabolic stability in mouse plasma assessed as half life measured after 2 hrs by LC-MS/MS analysis; format: ADME, cell-free

C[C@H]1CC2(CCN(c3ccc(C(=O)N4CCC(CN5Cc6cc7c(cc6C5)C(=O)N(C5CCC(=O)NC5=O)C7=O)CC4)cc3)CC2)CN1c1ccc(C#N)c(Cl)c1 (stereo partly drawn)
inhibition in vivo at 40 mg/kg (VCaP [1]): 85%
Vd [2]: 0.23 L/kg
DC50 [3]: 1.1 nM
half-life at 24 h [4]: 4.5 h
Vd [5]: 1.74 L/kg
AUC(0-t) at 24 h [6]: 15200 ng·h/mL
IC50 (LNCaP): 2.8 nM
half-life [7]: > 2 h
inhibition in vivo at 20 mg/kg (VCaP [8]): 68%
Vd [9]: 2.07 L/kg
DC50 [10]: 8 nM
half-life [11]: 4.3 h
half-life [12]: > 2 h
remaining at 2 h [13]: 87%
bioavailability [14]: 31%
half-life [15]: 9.62 h
Tmax [16]: 3.33 h
Tmax [17]: 3 h
half-life [18]: 10 h
AUC(0-t) at 24 h (in vivo): 5490 ng·h/mL
half-life [19]: > 2 h
Tmax [20]: 4 h
half-life [21]: > 2 h
